Data: PubChem BioAssay AID518 (Sanford-Burnham Center for Chemical Genomics, 2006)

Target: Alkaline phosphatase, tissue-nonspecific isozyme (Homo sapiens) (UniProt P05186)
Experiment: human TNAP enzyme inhibitors, biochemical, luminescent (AID 518)
Conditions: purified TNAP enzyme, luminescent substrate readout

Sequence of Alkaline phosphatase, tissue-nonspecific isozyme (Homo sapiens) (P05186 whole entry, looked up): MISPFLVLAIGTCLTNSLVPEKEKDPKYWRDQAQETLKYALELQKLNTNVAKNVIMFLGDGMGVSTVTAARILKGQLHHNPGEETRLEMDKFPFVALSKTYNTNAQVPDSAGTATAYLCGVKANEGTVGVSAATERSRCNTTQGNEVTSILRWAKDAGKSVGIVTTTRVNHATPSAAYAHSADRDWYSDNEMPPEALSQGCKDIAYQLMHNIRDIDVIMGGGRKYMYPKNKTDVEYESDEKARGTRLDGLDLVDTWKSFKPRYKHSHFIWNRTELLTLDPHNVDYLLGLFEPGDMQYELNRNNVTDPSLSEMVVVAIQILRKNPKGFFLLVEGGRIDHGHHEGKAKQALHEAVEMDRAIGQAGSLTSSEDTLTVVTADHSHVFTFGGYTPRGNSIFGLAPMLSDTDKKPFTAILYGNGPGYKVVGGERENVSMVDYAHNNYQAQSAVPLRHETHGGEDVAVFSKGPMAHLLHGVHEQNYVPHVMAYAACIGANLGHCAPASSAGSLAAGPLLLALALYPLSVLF

First: COCc1[nH]nc2c1C(c1cc(OC)c(O)c(OC)c1)C(C#N)=C(N)O2 (stereo not drawn)
Second: C/C(N)=C(/C#N)C(=O)CSc1n[nH]c(-c2ccccc2Br)n1
The IC50 of the first is 3-fold higher: 5250 nM for the first, 1730 nM for the second. The second is the more potent here.

Work on `O=C1C2CC=CCC2C(=O)N1c1n[nH]c(Cc2ccccc2)n1` (stereo not drawn) yielded an IC50 of 330 nM.
